The test system of one data set is Enterovirus A71. The data set is described as follows: Antiviral activity against EV71 infected in human RD cells incubated for 3 days by CellTiter 96 luminescent cell viability assay. It counts as functional, organism-based. Particulars: Enterovirus A, 71, RD, 72 h.
Data set [1] is described as follows: Cytotoxicity against […] infected with ZIKV-SMGC-1 incubated for 7 days by CellTiter 96 luminescent cell viability assay. Format: toxicity, cell-based. To be noted: time 7 day.
Data set [2] is described as follows: Cytotoxicity against […] infected with YFV-17D incubated for 7 days by CellTiter 96 luminescent cell viability assay. To be noted: time 7 day. Format: toxicity, cell-based.
Data set [3] can be described thus: Selectivity index, ratio of CC50 for human RD cells to IC50 for CA6 infected in human RD cells. Format: toxicity, cell-based. Particulars: read-out: Ratio CC50/IC50.
The nature of data set [4]: Selectivity index, ratio of CC50 for […] to IC50 for JEV-SA14 infected in […]. To be noted: read-out: Ratio CC50/IC50. Format: toxicity, cell-based.
A short description of data set [5]: Cytotoxicity against human RD cells infected with CA6 incubated for 3 days by CellTiter 96 luminescent cell viability assay. It counts as toxicity, cell-based. Particulars: time 3 day.
Data set [6] is described as follows: Selectivity index, ratio of CC50 for human RD cells to IC50 for EV71 infected in human RD cells. It counts as toxicity, cell-based. To be noted: read-out: Ratio CC50/IC50.
The test system of another data set is Coxsackievirus. In words: Antiviral activity against CA6 infected in human RD cells incubated for 3 days by CellTiter 96 luminescent cell viability assay. Particulars: A6, RD, 72 h. It counts as functional, organism-based.
The next data set relates to Zika virus. The data set is described as follows: Antiviral activity against ZIKV-SMGC-1 infected in […] incubated for 7 days by CellTiter 96 luminescent cell viability assay. Format: functional, organism-based. Particulars: SMGC-1, BHK, 168 h.
The nature of data set [7]: Selectivity index, ratio of CC50 for […] to IC50 for ZIKV-SMGC-1 infected in […]. It counts as toxicity, cell-based. To be noted: read-out: Ratio CC50/IC50.
Data set [8] is described as follows: Cytotoxicity against human RD cells infected with CA16 incubated for 3 days by CellTiter 96 luminescent cell viability assay. It counts as toxicity, cell-based. To be noted: time 3 day.
Data set [9] is described as follows: Selectivity index, ratio of CC50 for […] to IC50 for YFV-17D infected in […]. Format: toxicity, cell-based. Particulars: read-out: Ratio CC50/IC50.
A short description of data set [10]: Cytotoxicity against human RD cells infected with EV71 incubated for 3 days by CellTiter 96 luminescent cell viability assay. Particulars: time 3 day. It counts as toxicity, cell-based.
The next data set relates to Yellow fever virus. The data set is described as follows: Antiviral activity against YFV-17D infected in […] incubated for 7 days by CellTiter 96 luminescent cell viability assay. Format: functional, organism-based. Particulars: 168 h.
The test system of another data set is Dengue virus. In words: Antiviral activity against DENV-NGC-1 infected in […] incubated for 7 days by CellTiter 96 luminescent cell viability assay. Format: functional, organism-based. Particulars: NGC-1, BHK, 168 h.
Data set [11] can be described thus: Cytotoxicity against […] infected with JEV-SA14 incubated for 7 days by CellTiter 96 luminescent cell viability assay. It counts as toxicity, cell-based. Particulars: time 7 day.
The next data set concerns Coxsackievirus A16. The data set is described as follows: Antiviral activity against CA16 infected in human RD cells incubated for 3 days by CellTiter 96 luminescent cell viability assay. To be noted: Enterovirus A, 72 h. It counts as functional, organism-based.
Data set [12] is described as follows: Cytotoxicity against […] infected with DENV-NGC-1 incubated for 7 days by CellTiter 96 luminescent cell viability assay. It counts as toxicity, cell-based. To be noted: time 7 day.
Data set [13] concerns Japanese encephalitis virus. In words: Antiviral activity against JEV-SA14 infected in […] incubated for 7 days by CellTiter 96 luminescent cell viability assay. To be noted: 168 h. It counts as functional, organism-based.
Data set [14] is described as follows: Selectivity index, ratio of CC50 for […] to IC50 for DENV-NGC infected in […]. Format: toxicity, cell-based. Particulars: read-out: Ratio CC50/IC50.
Data set [15] is described as follows: Selectivity index, ratio of CC50 for human RD cells to IC50 for CA16 infected in human RD cells. It counts as toxicity, cell-based. Particulars: read-out: Ratio CC50/IC50.

What is called IC50 is the midpoint of a concentration-inhibition curve. In general, CC50 refers to the concentration that lowers cell viability or growth by half. Read a high CC50 as better tolerance by the cells. Consider `C#C[C@@]1(O)[C@H](O)[C@@H](CO)O[C@H]1n1ccc2c(N)ncnc21`, for which the 50% inhibitory concentration (IC50) in the data set with Enterovirus A71 amounted to 0.5 µM; with Coxsackievirus it was 0.92 µM; in the data set on Zika virus, 1.62 µM; in the data set on Yellow fever virus, 1.91 µM; in the data set on Dengue virus, 5.05 µM; in the data set on Coxsackievirus A16 it was 0.71 µM. In [13], this compound returned a concentration for half-maximal inhibition (IC50) of 3.09 µM. Further, the 50% cytotoxic concentration (CC50) at 168 h in data set [1], in [2], in data set [11] and in data set [12] was greater than 20 µM throughout. The selectivity ratio was greater than 21.7 in data set [3]; greater than 6.47 in data set [4]; greater than 40 in data set [6]; greater than 12.3 in data set [7]; greater than 10.5 in data set [9]; greater than 3.96 in data set [14]. The selectivity ratio in data set [15] was greater than 28.2. The half-maximal cytotoxic concentration (CC50) at 72 h in data set [5], in data set [8] and in [10] was greater than 20 µM throughout.

Take `O=C(c1ccc(C(F)(F)F)cc1O)c1[nH]c(Cl)c(Cl)c1-n1c(C(=O)c2ccc(C(F)(F)F)cc2O)cc(Cl)c1Sc1ccccn1`: the CC50 at 168 h in data set [2] and in [11] was 0.23 µM throughout. Also, the selectivity ratio stood at 1.2 in data set [3], 1.1 in data set [4], 4.6 in [9] and 22.8 in [15]. Further, the CC50 at 72 h in data set [5] and in data set [8] was 0.23 µM throughout. Moreover, the half-inhibitory concentration (IC50) turned out to be 0.19 µM with Coxsackievirus, 0.05 µM in the data set with Yellow fever virus, 0.01 µM in the data set on Coxsackievirus A16 and 0.21 µM in data set [13].

Take `CN(C)CCn1nnnc1Sc1c(Cl)cc(C(=O)c2ccc(C(F)(F)F)cc2O)n1-c1c(C(=O)c2ccc(C(F)(F)F)cc2O)[nH]c(Cl)c1Cl`: the 50% inhibitory concentration (IC50) with Enterovirus A71 is 2.47 µM; in the data set with Zika virus it was 1.69 µM; with Yellow fever virus it was 1.97 µM; in the data set with Dengue virus, 1.87 µM; in [13], 2.11 µM. Also, the CC50 at 168 h in data set [1] was determined as 2.82 µM; in data set [2], 4.14 µM; in data set [11], 4.14 µM; in data set [12], 2.82 µM. For the same compound, the selectivity ratio in data set [4] is 1.96; in [6] it was 1.28; in [7], 1.67; in data set [9] it was 2.1; in data set [14] it was 1.51. In addition, the cytotoxic concentration (CC50) at 72 h in data set [10] was 3.17 µM.

On to `O=C(c1ccc(C(F)(F)F)cc1O)c1[nH]c(Cl)c(Cl)c1-n1c(C(=O)c2ccc(C(F)(F)F)cc2O)cc(Cl)c1Sc1ncccn1`, for which the IC50 with Enterovirus A71 was determined as 0.09 µM; in the data set with Coxsackievirus, 0.29 µM; in the data set on Coxsackievirus A16, 0.03 µM. Moreover, the selectivity ratio in [3] is 1.84; in data set [6], 3.56; in data set [15], 17.8. The cytotoxic concentration (CC50) at 72 h in data set [5] came to 0.53 µM; in [8], 0.53 µM; in [10], 0.32 µM.

Regarding `O=C(c1ccc(C(F)(F)F)cc1O)c1[nH]c(Cl)c(Cl)c1-n1c(C(=O)c2ccc(C(F)(F)F)cc2O)cc(Cl)c1SCCCO`, the cytotoxic concentration (CC50) at 168 h in [2], in data set [11] and in data set [12] was 1.42 µM in each case. Further, the selectivity ratio in data set [3] is 4; in data set [4], 6.17; in data set [7], 14.2; in data set [9], 7.1; in [14] it was 6.17. The same compound returned a half-maximal cytotoxic concentration (CC50) at 72 h in data set [5] of 1.04 µM. The IC50 turned out to be 0.26 µM with Coxsackievirus; 0.1 µM in the data set with Zika virus; 0.2 µM in the data set on Yellow fever virus; 0.23 µM with Dengue virus; 0.23 µM in data set [13].

For the compound `O=C(c1ccc(C(F)(F)F)cc1O)c1[nH]c(Cl)c(Cl)c1-n1c(C(=O)c2ccc(C(F)(F)F)cc2O)cc(Cl)c1SCc1ccccn1`, the IC50 turned out to be 0.17 µM in the data set with Enterovirus A71, 0.19 µM with Coxsackievirus, 0.03 µM with Coxsackievirus A16 and 0.42 µM in data set [13]. The CC50 at 168 h amounted to 0.32 µM in data set [1] and 0.26 µM in data set [11]. The selectivity ratio came to 1.8 in data set [3], 0.61 in data set [4], 1.43 in data set [6] and 11.5 in data set [15]. Moreover, the CC50 at 72 h in data set [5] came out at 0.34 µM; in data set [8] it was 0.34 µM; in [10], 0.24 µM.

Regarding `O=C(c1ccc(C(F)(F)F)cc1O)c1[nH]c(Cl)c(Cl)c1-n1c(C(=O)c2ccc(C(F)(F)F)cc2O)cc(Cl)c1Sc1cccs1`, the 50% inhibitory concentration (IC50) turned out to be 0.02 µM in the data set with Enterovirus A71; 0.03 µM with Coxsackievirus; 0.05 µM with Yellow fever virus; 0.01 µM in the data set with Coxsackievirus A16; 0.05 µM in data set [13]. Further, the CC50 at 168 h in data set [2] and in [11] was 0.23 µM each time. The selectivity ratio was 3.67 in [3]; 4.59 in data set [4]; 4 in [6]; 4.6 in data set [9]; 12.2 in data set [15]. Moreover, the values for the CC50 at 72 h in data set [5], in [8] and in [10] were 0.11 µM, 0.11 µM and 0.08 µM, respectively.

With `O=C(c1ccc(C(F)(F)F)cc1O)c1[nH]c(Cl)c(Cl)c1-n1c(C(=O)c2ccc(C(F)(F)F)cc2O)cc(Cl)c1Sc1nc2ccccc2o1`, the half-maximal inhibitory concentration (IC50) in the data set with Enterovirus A71 worked out at 0.3 µM; in the data set with Coxsackievirus, 0.49 µM; in the data set with Zika virus it was 0.36 µM; in the data set on Dengue virus, 0.36 µM; with Coxsackievirus A16, 0.13 µM; in [13], 1.25 µM. Besides, the selectivity ratio in data set [3] is 3.18; in data set [4], 1.44; in data set [6] it was 3.07; in data set [7], 5; in data set [14] it was 5; in [15], 12. In addition, the results for the 50% cytotoxic concentration (CC50) at 72 h in [5], in data set [8] and in data set [10] were 1.56 µM, 1.56 µM and 0.92 µM, respectively. Further, the 50% cytotoxic concentration (CC50) at 168 h in data set [11] and in data set [12] was 1.8 µM throughout.

Regarding `Cn1nnnc1Sc1c(Cl)cc(C(=O)c2ccc(C(F)(F)F)cc2O)n1-c1c(C(=O)c2ccc(C(F)(F)F)cc2O)[nH]c(Cl)c1Cl`, the CC50 at 168 h in data set [1] came out at 3.12 µM; in [2], 2.49 µM; in [11] it was 2.48 µM; in [12], 3.12 µM. Also, the selectivity ratio in [3] is 1.56; in data set [4] it was 0.89; in data set [7] it was 2.52; in data set [9], 1.01; in [14], 1.79; in data set [15], 4.48. Further, the half-maximal cytotoxic concentration (CC50) at 72 h in data set [5] was determined as 4.29 µM; in data set [8], 4.3 µM. Moreover, the concentration for half-maximal inhibition (IC50) with Coxsackievirus came to 2.75 µM; in the data set with Zika virus, 1.24 µM; in the data set on Yellow fever virus, 2.47 µM; in the data set with Dengue virus, 1.74 µM; with Coxsackievirus A16 it was 0.96 µM; in [13] it was 2.79 µM.

On to `O=C(c1ccc(C(F)(F)F)cc1O)c1[nH]c(Cl)c(Cl)c1-n1c(C(=O)c2ccc(C(F)(F)F)cc2O)cc(Cl)c1SCCO`, for which the IC50 came to 0.55 µM with Enterovirus A71; 0.07 µM in the data set with Zika virus; 0.6 µM in the data set with Yellow fever virus; 0.15 µM with Dengue virus; 0.68 µM in [13]. Further, the CC50 at 168 h in data set [1] amounted to 1.42 µM; in data set [2], 1.45 µM; in data set [11], 1.45 µM; in data set [12], 0.5 µM. For the same compound, the selectivity ratio in [4] came out at 2.13; in data set [6], 2.85; in data set [7], 7.13; in data set [9] it was 2.41; in data set [14] it was 3.34. In data set [10], this compound yielded a 50% cytotoxic concentration (CC50) at 72 h of 1.57 µM.
